Test system: saquinavir antiserum
Experiment: Assay specificity determination: competitive microtiter plate ELISA with saquinavir-BSA coated plate and saquinavir antiserum
Type: binding, sheep
Conditions: for dose-response of optical density at 450 nm (competition for antiserum binding): serial three-fold dilutions of drug in PBS-TWEEN, antiserum 1:12,800, 62.5 ng/ml saquinavir-BSA coat
Procedure: Corning micro-ELISA plates (96 wells) were used throughout. The saquinavir-BSA conjugate was diluted to 2 μg/ml in 0.1 M sodium carbonate buffer, pH 9.5. One hundred microliters of the buffer was placed in the wells of each row of the plate except the first row. The first row was filled with 200 μL of the 2 μg/ml saquinavir-BSA solution, and a twelve-tip micropipettor was used to transfer 100 μl from the first row to the second row of all columns at the same time. Mixing of contents of the second row was accomplished by re-pipetting 3 times. One hundred microliters from the second row was then transferred to the third row and mixed. This was repeated to the last row of the plate. After mixing, 100 μl was removed from the last row and discarded. The plate was placed in a humidified Zip-Loc bag and incubated for 1 hour at 37° C. After incubation, the plate was removed from the incubator and bag and emptied into a waste container. PostCoat solution was added to each well in the amount of 200 μl. This solution consisted of 1% gelatin hydrolysate, 2% sucrose, 0.15 M Tris, pH 7.4, 0.17% TWEEN 20 (ICI Americas Inc.), and 0.02% Thimerosal preservative. All reagents were from Sigma Chemicals. The plate was returned to the humidified bag and placed in the incubator for 1 hour. Five minutes before the incubation was complete, Zymed rabbit anti-sheep IgG-HRP conjugate was diluted 1:2000 in PBS-TWEEN and vortexed gently to completely mix. Upon completion of the hour incubation, the plate was washed 4 times with 300 μl of PBS-TWEEN using a BioTek Instruments, Inc. EL404 plate washer. One hundred microliters of the diluted rabbit anti-sheep IgG-HRP conjugate was then pipetted into each well, the plate re-bagged and incubated for 1 hour. At the completion of the hour, the plate was removed from the incubator and bag and washed six times on the plate washer. One hundred microliters of K-BLUE enzyme substrate (Neogen, Inc.) was then added to each well and color allowed to develop in the dark for 5 minutes. Color development was halted by the addition of 100 μl of 1 N hydrochloric acid to each well. The optical density of each well was measured at two wavelengths, 405 nm and 450 nm using a Molecular Devices, Inc. ThermoMax plate reader. […] Therefore, the OD405 measurements were used to calculate the extrapolated OD450 by the well-known method of using a linear least squares regression of readings at both wavelengths. An ELISA plate was coated with the above concentrations of saquinavir-BSA using the same conditions as set forth above. While the plates were being PostCoated, serial three-fold dilutions of saquinavir, ritonavir, indinavir, and nelfinavir were prepared in a 1 ml capacity 96-well plate. All drugs were prepared at 1 mg/ml in absolute methanol and stored at 4° C. until used. […]

| Structure (SMILES) | inhibition with respect to zero drug (lowest non-zero drug concentration in Example 5 (7 dilution steps)) | dose-response of optical density at 450 nm (competition for antiserum binding) | cross-reaction of the antiserum (relative to saquinavir, calculated from OD450 dose-response data) |
| --- | --- | --- | --- |
| CC(C)(C)NC(=O)[C@@H]1C[C@@H]2CCCC[C@@H]2CN1C[C@@H](O)[C@H](Cc1ccccc1)NC(=O)[C@H](CC(N)=O)NC(=O)c1ccc2ccccc2n1 [saquinavir] | ~50% | dose-response curve | – |
| Cc1c(O)cccc1C(=O)N[C@@H](CSc1ccccc1)[C@H](O)CN1C[C@H]2CCCC[C@H]2C[C@H]1C(=O)NC(C)(C)C [nelfinavir] | – | lesser response | 0.4% |

From patent US20070148684A1, “IMMUNOASSAY FOR HIV PROTEASE INHIBITORS” (priority 2000, published 2007)
